Experimental data taken from patent US20230065158A1, “OXABICYCLOHEPTANES FOR TREATMENT OF SMALL CELL LUNG CANCER” (Lixte Biotechnology, Inc., priority 2021, published 2023).

What was measured:
H82 cells = test: Cell Counting Kit-8 cytotoxicity, H82; settings: Homo sapiens, NCI-H82, 72 h, read-out: Cytotoxicity IC50, H82
Excerpt: (§2) To determine specific cytotoxicity, we used Cell Counting Kit-8 (Dojindo Molecular Technologies, Rockville, Md.) as previously described (50).

H524 and H69 cells = test: Colony formation assay; assay type: cell-based; settings: both cell lines; H524/H69: LB-100 2.5/20 μM, carboplatin 4/20 μM, etoposide 3/30 μM
Experimental: (§1) A Mann-Whitney U test was used for comparison between the normal and SCLC samples. FIG. 1B: IHC for PP2A was conducted on TMA tissue sections and images were captured at 4× or 20× using a 3D-Histech PANNORAMIC SCAN whole slide scanner (3D-Histech, Budapest, Hungary). […] TMAs were scored in normal (n=24) and tumor (n=79) cores on a scale from 0 (no staining/no protein expression) to 3+(strong staining/high protein expression). FIG. 1C: Summary bar graph of the average PP2A subunit staining. IHC staining intensity of normal and tumor cores. […] FIG. 1D: In order to compare the expression of PP2A subunits A and C, cell lysates from seven SCLC cell lines and HBEC 3KT (non-malignant cell line) were subjected to western blotting. FIG. 1E: PP2A activity was determined using a serine/threonine phosphatase activity assay (Millipore) after 24 h exposure to cantharidin (10 μM) and LB-100 (5 μM). […] The Cell Counting Kit-8 assay detected cell H524 and H69 cell viability. […] FIGS. 1I-1K: Graphs depict the mean+SEM of percent viability for cells (n=3). Colony formation assays were used to count the ability of H524 (FIGS. 11 and 1J) and H69 (FIGS. 1K and 1L) cells to form colonies. […] Representative images of colonies at 4× are shown under the graph (n=2).*p<0.05; **, p<0.01; *** p<0.001; ****, p<0.0001. Experiments were repeated in triplicate and representative data are shown.

H69 cells = test: Cell Counting Kit-8 cytotoxicity and drug combination, H69; settings: Homo sapiens, NCI-H69, 72 h, read-out: Cytotoxicity IC50, H69; 72 hours
Experimental: as §1

H446 cells = test: Cell Counting Kit-8 cytotoxicity, H446; settings: Homo sapiens, NCI-H446, 72 h, read-out: Cytotoxicity IC50, H446
Excerpt: as §2

H524 cells = test: Cell Counting Kit-8 cytotoxicity and drug combination, H524; settings: Homo sapiens, NCI-H524, 72 h, read-out: Cytotoxicity IC50, H524; 72 hours
Experimental: as §1

H526 cells = test: Cell Counting Kit-8 cytotoxicity, H526; settings: Homo sapiens, NCI-H526, 72 h, read-out: Cytotoxicity IC50, H526
Excerpt: as §2

H146 cells = test: Cell Counting Kit-8 cytotoxicity, H146; settings: Homo sapiens, NCI-H146, 72 h, read-out: Cytotoxicity IC50, H146
Excerpt: as §2

H446 spheroids = H446 spheroids with drugs and T cells, live imaging; assay type: cell-based; settings: without T cells, 48 h
Experimental: FIGS. 7A-7G depict results of T cells infiltration in H446 spheroids in the presence of LB100 and atezolizumab. FIG. 7A: Schematic of the effect of activated T cells on H446 spheroid degradation. At time point 0, single spheroids in 96 well plate were treated with LB-100, atezolizumab and T cells. Beads mimic in vivo T cell activation by two action signals CD3 and CD28. IncuCyte® Live-Cell Analysis System was used for the spheroidal imaging. Right panel presents spheroidal degeneration after 48 h incubation with LB-100, atezolizumab and activated T cells. FIGS. 7B and 7C: Automated image analysis provides metrics (0 h-μm, […]) and spheroid area (yellow-bright field mask). Column bars present mean values of spheroids at 0h. Representative images in bright field mask. […]
Cytotoxic CD8+ cells were isolated from whole blood, buffy coat of healthy donors following the protocol described in the Methods. […] Spheroid survival was monitored for 48 hours and their diameters were measured from phase contrast images. […]
H446 were generated as described in Materials and Methods (Monitoring of spheroid growth and cytotoxicity with the IncuCyte® Live-Cell Analysis System and IncuCyte® Cytotox reagent) following incubation with T cells and drugs. The effect of LB100 and atezolizumab in the presence of T cells was monitored with IncuCyte 3D Multi-Tumor Spheroid assay.

PP2A = target: T1, PP2A (Homo sapiens, UniProt P67775); test: PP2A immunoprecipitation Ser/Thr phosphatase activity assay in treated H524 cells; assay type: cell-based; settings: cantharidin 10 μM, 24 h
T1 construct: endogenous in cells; host or cells: H524 (human SCLC) cells
T1 sequence (P67775 whole entry): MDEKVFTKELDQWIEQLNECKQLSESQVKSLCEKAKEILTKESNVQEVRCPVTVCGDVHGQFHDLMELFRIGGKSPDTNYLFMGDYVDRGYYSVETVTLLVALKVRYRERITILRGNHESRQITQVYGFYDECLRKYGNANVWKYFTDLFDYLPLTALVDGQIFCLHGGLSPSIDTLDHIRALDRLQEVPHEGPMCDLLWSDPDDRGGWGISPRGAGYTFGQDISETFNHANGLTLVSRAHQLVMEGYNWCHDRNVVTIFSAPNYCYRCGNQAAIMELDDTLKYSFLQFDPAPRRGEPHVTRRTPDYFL
T1 sequence (P30153 whole entry partner): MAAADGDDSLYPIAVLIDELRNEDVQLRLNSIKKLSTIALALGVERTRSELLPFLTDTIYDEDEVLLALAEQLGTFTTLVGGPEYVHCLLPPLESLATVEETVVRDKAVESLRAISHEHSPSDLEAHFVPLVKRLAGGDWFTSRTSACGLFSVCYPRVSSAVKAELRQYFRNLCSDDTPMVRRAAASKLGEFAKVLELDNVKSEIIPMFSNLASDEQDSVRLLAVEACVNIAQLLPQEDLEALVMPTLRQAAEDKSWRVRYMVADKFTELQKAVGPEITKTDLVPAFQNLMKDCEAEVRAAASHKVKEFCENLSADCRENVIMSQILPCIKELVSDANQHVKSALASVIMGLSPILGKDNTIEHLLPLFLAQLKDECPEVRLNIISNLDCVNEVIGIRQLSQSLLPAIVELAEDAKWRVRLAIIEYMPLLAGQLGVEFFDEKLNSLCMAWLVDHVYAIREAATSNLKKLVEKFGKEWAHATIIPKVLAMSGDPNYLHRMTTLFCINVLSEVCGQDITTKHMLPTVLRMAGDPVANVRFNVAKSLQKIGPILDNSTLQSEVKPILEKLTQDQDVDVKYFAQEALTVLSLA
Experimental: FIGS. 1A-IL depict the effects of LB-100 on PP2A-A expression in SCLC tumors and cells. […] A Mann-Whitney U test was used for comparison between the normal and SCLC samples. FIG. 1B: IHC for PP2A was conducted on TMA tissue sections and images were captured at 4× or 20× using a 3D-Histech PANNORAMIC SCAN whole slide scanner (3D-Histech, Budapest, Hungary). […] TMAs were scored in normal (n=24) and tumor (n=79) cores on a scale from 0 (no staining/no protein expression) to 3+(strong staining/high protein expression). FIG. 1C: Summary bar graph of the average PP2A subunit staining. IHC staining intensity of normal and tumor cores. There was a statistically significant difference between normal and tumor tissue (p<0.001). FIG. 1D: In order to compare the expression of PP2A subunits A and C, cell lysates from seven SCLC cell lines and HBEC 3KT (non-malignant cell line) were subjected to western blotting. FIG. 1E: PP2A activity was determined using a serine/threonine phosphatase activity assay (Millipore) after 24 h exposure to cantharidin (10 μM) and LB-100 (5 μM). […] LB-100 alone or in combination with carboplatin inhibited proliferation and colony formation in SCLC cells. The Cell Counting Kit-8 assay detected cell H524 and H69 cell viability. […] FIGS. 1I-1K: Graphs depict the mean+SEM of percent viability for cells (n=3). […]

Compound: COc1cc([C@@H]2c3cc4c(cc3[C@@H](O[C@@H]3O[C@@H]5CO[C@@H](C)O[C@H]5[C@H](O)[C@H]3O)[C@H]3COC(=O)[C@H]23)OCO4)cc(OC)c1O [Etoposide]
- IC50 (H82 cells): 22.6 µM
- colony formation (H524 and H69 cells): significantly reduced colony formation
- IC50 (H69 cells): 30 µM
- IC50 (H446 cells): 3 µM
- IC50 (H524 cells): 3 µM
- IC50 (H526 cells): 2.8 µM
- IC50 (H146 cells): 31.2 µM

Compound: atezolizumab: humanized immunoglobulin (Ig) G1 monoclonal antibody that targets PD-L1 [reference compound]
- effect on spheroids (degeneration), drug alone (H446 spheroids): no effect

Compound: C[C@@]12C(=O)OC(=O)[C@]1(C)[C@H]1CC[C@@H]2O1 [cantharidin, reference compound]
- PP2A activity reduced by (PP2A): ~90%
